# Experimental data from publication PMC7288058, “Modulating the Properties of Fe(III) Macrocyclic MRI Contrast Agents by Appending Sulfonate or Hydroxyl Groups” (Molecules, 2020).
# “And” between values parts separate entries of the source, which are not always exact repeats. Identical values can stand only once. Like-named read-outs stand apart in the source and are kept apart here.
# How the values were obtained:
# [1] = cited from earlier work; for relaxivity: 4.7 T printed for Fe(EDTA) only
# [2] = design: method as in PMID 31725934; settings: 1-octanol/water; cited from earlier work
# [3] = design: method as in PMID 31725934; settings: comparison complex, no titration described in this paper; cited from earlier work
# [4] = design: method as in PMID 31725934; settings: 100 mM HCl, cited from earlier work
# Balb/c mice [5] = test system: Balb/c mice; design: method as in PMID 31725934; settings: cited from earlier work
# [6] = molecular target: T1, human serum albumin (HSA) (Homo sapiens, UniProt P02768); assay: Binding to human serum albumin by ultrafiltration / ICP-MS; assay type: in vitro ADME; settings: 0.4 mM complex, HSA 4.5% (w/v) (0.7 mM), 20 mM HEPES pH 7.4, 100 mM NaCl, 37 °C, 20 min
# T1 construct: Albumin from human serum (fatty acid free) was purchased from Sigma-Aldrich; purchased Sigma-Aldrich; host or cells: purified from human serum
# T1 sequence (P02768 25-609): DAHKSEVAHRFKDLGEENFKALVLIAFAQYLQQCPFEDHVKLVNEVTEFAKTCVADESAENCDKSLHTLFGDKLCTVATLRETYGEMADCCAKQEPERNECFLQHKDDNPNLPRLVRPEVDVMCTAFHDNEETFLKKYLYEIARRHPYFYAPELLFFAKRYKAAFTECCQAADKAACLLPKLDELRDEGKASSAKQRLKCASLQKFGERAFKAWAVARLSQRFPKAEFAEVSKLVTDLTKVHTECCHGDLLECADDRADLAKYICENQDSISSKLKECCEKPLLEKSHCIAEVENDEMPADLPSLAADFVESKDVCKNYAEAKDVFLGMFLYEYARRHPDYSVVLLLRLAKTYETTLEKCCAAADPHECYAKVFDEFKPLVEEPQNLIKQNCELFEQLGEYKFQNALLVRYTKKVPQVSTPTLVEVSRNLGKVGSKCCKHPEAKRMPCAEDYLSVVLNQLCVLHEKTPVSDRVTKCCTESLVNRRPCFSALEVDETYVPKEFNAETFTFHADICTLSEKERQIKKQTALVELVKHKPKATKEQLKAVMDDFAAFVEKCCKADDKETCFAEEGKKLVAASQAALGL
# Method: Binding of the Fe(III) complexes to human serum albumin (HSA) was studied by using ultrafiltration across a MW 5000 cutoff membrane. The solutions containing HEPES buffer (pH 7.4) and salt NaCl were incubated at 37 °C for 20 min. Solutions contained 0.4 mM Fe(III) complex and 4.5 % (w/v) HSA (0.7 mM). The binding percentages were measured by using ICP-MS to analyze the Fe concentration in the unbound complex solutions after HSA incubation (Table 1). The protein binding for Fe(L3)(OH2) was higher (75%) than for Fe(L1)(OH2) (37%) or Fe(L2) (11%).
# The molecular weight of 66,435 Da was used to determine the molar concentrations of HSA. Fe(III) complex (0.400 mM) solutions were incubated with 4.5% (w/v) HSA in 0.100 M NaCl and 20.0 mM HEPES buffer (pH 7.4). All solutions were incubated at 37 °C for 20 min [42]. Aliquots (0.300 mL) were placed in ultra-centrifugal filter units with a 5-kDa membrane and centrifuged at 3500× g for 10 min. The filtrates were used to determine Fe concentration from digested unbound Fe(III) complexes by using ICP-MS.
# [7] = 'was reported', reference not given, cited from earlier work
# Balb/c mice [8] = assay: Dynamic T1-weighted MRI in mice after tail vein injection (4.7 T); assay type: in vivo; settings: healthy mouse, 0.05 mmol/kg, kidneys/blood, up to 45 min
# From the text: The two new Fe(III) complexes, Fe(L1)(OH2) and […], and the Gd(III) agent, Gd(DOTA), were studied in Balb/c mice on a small animal 4.7-T MRI scanner upon tail vein injection of the agent (Figure S24, Supplementary Materials). […] Biodistribution and pharmacokinetic clearance of the complexes in mice were monitored by using dynamic MRI.
# In vivo imaging studies with the Fe(III) complexes were studied on at 4.7 T Bruker preclinical MRI in mice (BABC/cJ, Jackson Laboratory) in accordance with approved Institutional Animal Care and Use Committee (IACUC) protocols. The samples with a concentration of 0.050, 0.100, and 0.200 mmol [Fe]/kg. The Fe(III) complex stock solutions were adjusted to pH 7.2 by addition of meglumine and were injected intravenously via tail vein. MR data were recorded continuously for up to 1 h. Distribution studies and clearance kinetics were studied by using MR data acquired over several time points for up to 1 h, and additionally at 4 h and 24 h. For comparison, The Food and Drug Administration (FDA)-approved MRI contrast agent gadopentetate dimeglumine (Gd(DTPA), Magnevist®) and gadoterate meglumine (Gd(DOTA), Dotarem®) were injected at 50.0 μmol [Gd]/kg into separate group of mice and imaged as above.
compound,measurement,setting,value
O=C([O-])CN(CCN(CC(=O)[O-])CC(=O)[O-])CCN(CC(=O)[O-])CC(=O)[O-].[Fe+3] [Fe(DTPA)],relaxivity,[1],0.51 mM⁻¹ s⁻¹
O=C([O-])CN(CCN(CC(=O)[O-])CC(=O)[O-])CC(=O)[O-].[Fe+3] [Fe(EDTA)],relaxivity,[1],1.4 mM⁻¹ s⁻¹
C[C@H]([O-])CN1CCN(Cc2ccccc2)CCN(C[C@H](C)O)CC1.O.[Fe+3] [Fe(L3)(OH2)],Log P,[2],−0.13
same,Log K1 (pKa2),[3],7.17 ± 0.01
same,dissociation in acidic solution,[4]; over 24 h,14%
same,dissociation in acidic solution,[4]; over 72 h,38%
same,duration of enhanced kidney contrast,Balb/c mice [5],up to four hours
same,r2 4.7 T,[1]; 4.7 T,4.5 ± 1.1 mM⁻¹ s⁻¹
same,r1 4.7 T,"[1]; buffer, pH 7.4, 37 °C, 4.7 T",2.2 mM⁻¹ s⁻¹ and 2.2 ± 0.30 mM⁻¹ s⁻¹
same,r1 in HSA 4.7 T,"[1]; in HSA, 4.7 T",2.5 ± 0.10 mM⁻¹ s⁻¹
same,r2 in HSA 4.7 T,"[1]; in HSA, 4.7 T",4.2 ± 0.70 mM⁻¹ s⁻¹
same,HSA Binding (%),[6],75% and 75.1 ± 3.7%
same,electrode potential (E1/2) vs. Ag/AgCl,[7]; pH 3,112 mV
same,electrode potential (E1/2) vs. NHE,[7]; pH 3,400 mV
same,electrode potential (E1/2) vs. Ag/AgCl,[7]; pH 7,−588 mV
same,electrode potential (E1/2) vs. NHE,[7]; pH 7,−300 mV
same,T1-weighted contrast enhancement compared with other agents,Balb/c mice [8],much stronger than that of Fe(L1)(OH2) or Gd(DOTA)
"CNC[C@H](O)[C@@H](O)[C@H](O)[C@H](O)CO.O=C([O-])CN1CCN(CC(=O)[O-])CCN(CC(=O)O)CCN(CC(=O)[O-])CC1.[Gd+3] [Gd(DOTA), gadoterate meglumine]",r1 4.7 T,[1]; 4.7 T,2.8 ± 0.10 mM⁻¹ s⁻¹
same,r2 4.7 T,[1]; 4.7 T,3.7 ± 0.20 mM⁻¹ s⁻¹
"CNC[C@H](O)[C@@H](O)[C@H](O)[C@H](O)CO.CNC[C@H](O)[C@@H](O)[C@H](O)[C@H](O)CO.O=C([O-])CN(CCN(CC(=O)[O-])CC(=O)O)CCN(CC(=O)[O-])CC(=O)O.[Gd+3] [Gd(DTPA), gadopentetate dimeglumine]",r1 9.4 T,[1]; 9.4 T,2.5 mM⁻¹ s⁻¹
same,r1 4.7 T,"[1]; buffer, pH 7.4, 37 °C, 4.7 T",3.1 mM⁻¹ s⁻¹
same,r1 in HSA 4.7 T,"[1]; in HSA, 4.7 T",3.2 mM⁻¹ s⁻¹
